Entries after “also recorded” stand apart in the source; their conditions may differ.
Key:
[1] = system: wild type (WT) C57BL/6 mice, post-ischemic (IR) kidney; assay: Unilateral ischemia reperfusion injury (uIRI) model of AKI, post-ischemic treatment, wild type mice; assay type: in vivo, mouse; details: for reduction in fibrosis assessed by Picro Sirius red staining / perfusion of IR kidney (visual): 7.5 mg/kg IP on alternate days from day 2
Description: Wild type (WT) C57BL/6 mice (7 week old) were procured by The Jackson Laboratory and acclimatized for 1 week at standard conditions (23° C.-25° C.; 40-60% humidity with standard diet). Post acclimatization animals were subjected to unilateral ischemia reperfusion (uIRI) model of acute kidney injury (AKI) in mice as described previously. [Rajendran, G et al., 2020, J Am Soc Nephrol 31(3) 501-516] Briefly, adult C57BL/6 mice (8 weeks old) were anesthetized with xylazine (10 mg/kg intraperitoneally) and ketamine (90-120 mg/kg intraperitoneally). Post anesthesia, a small incision in the midline of the abdomen was created and the left renal pedicle was occluded with a microaneurysm clamp, while the right kidney served as an internal control. The abdomen was temporarily partly closed by covering with clean stretch film, and the body temperature was monitored with a rectal probe and maintained at 37° C. using a heating pad. After 25 minutes, the clamps were removed, and reperfusion was visually confirmed. The abdomen was closed with a 6-0 suture and the skin with Michel miniature clips. Post-ischemia reperfusion injury (IRI), mice were randomly divided into two groups: 1. Vehicle treated (WT-Veh) and 2. Syrosingopine treated (WT-Syro). Treatment with syrosingopine or vehicle was initiated on day 2 post-IRI, a time point characterized by established kidney injury. Syrosingopine (Syro) was administered intraperitoneally (7.5 mg/kg body weight, prepared in mixture of DMSO and Tween 80) on alternate days (FIG. 1A). WT-Veh group was treated with mixture of DMSO+Tween 80 (Veh) and served as control group. On days 7 and 14 post-IRI, mice were sacrificed, and kidney damage was examined using standard methods of histopathological and molecular analysis.
Histopathological Analysis Isolated kidneys were fixed in buffered formalin for 24 h and paraffin blocks were papered using automated tissue processor (Leica Biosystems). 5 μm thick paraffin kidney sections were cut and stained with hematoxylin and eosin, and Picro Sirius red. Images were captured under microscope and were analysed using Image J (National Institutes of Health [NIH]). […] Fibrosis was assessed by the percentage of Picro-Sirius red^+ve area determined with ImageJ software (http://rsbweb.nih.gov/ij). For tubular injury scoring and quantification of Picro-Sirius red^+ve area ^310 and ^35 random visual fields of corticomedullary region, respectively were analyzed per kidney section for each sample at a magnification of ×200.
RNA and Protein Analyses RNA was isolated using Trizol from contralateral (uninjured right kidney) and IR (post unilateral clamping left kidney) kidneys and used for real-time quantitative PCR (qPCR) analysis of fibrosis and inflammatory related genes. 18S was used to normalize mRNA.
Total RNA was extracted using TRIzol reagent (n=4). Bulk RNAseq was performed by Admera Health. RNA integrity was checked with an Agilent Technologies 2100 Bioanalyzer. Poly(A) RNA sequencing libraries were prepared. Paired-ended sequencing was performed on an Illumina sequencing system. FastQC (version v0.11.8) was applied to check the quality of raw reads. Trimmomatic (version v0.38) was applied to cut adaptors and trim low-quality bases with the default setting. STAR Aligner version 2.7.1a was used to align the reads. Picard tools (version 2.20.4) was applied to mark duplicates of mapping. The StringTie version 2.0.4 was used to assemble the RNA-Seq alignments into potential transcripts. The featureCounts (version 1.6.0)/HTSeq was used to count mapped reads for genomic features such as genes, exons, promoter, gene bodies, genomic bins and chromosomal locations. The De-Seq2 (version 1.14.1) was used to do differential analysis.

[2] = system: PHD^TiEC mice, post-ischemic kidney; assay: Unilateral renal IRI in PHD^TiEC mice, post-ischemic treatment; assay type: in vivo, mouse; details: day 14 post uIRI
Source text: As the primary metabolic response of the post-ischemic endothelium to HIF stabilization in the context of PHD inactivation was increased glycolysis, we next focused on this aspect. While increased lactate generation and efflux via the transporter MCT4 represent the final steps of hypoxia-induced glycolysis, lactate export was recently shown to be among the four key steps controlling glycolytic flux. […] Indeed, immunofluorescence staining confirmed high expression of MCT4 protein in the post-ischemic kidney endothelium of PHD^TiEC (FIG. 10A and FIG. 19). We next sought to investigate whether increased endothelial MCT4 causally contributes to the maladaptive post-ischemic kidney repair observed in the PHD^TiEC mice. To this end, we used syrosingopine, a dual inhibitor of monocarboxylate transporters MCT1 and MCT4 (60-fold higher potency on MCT4), which leads to end-product inhibition of glycolysis. As depicted in FIG. 10B, PHD^TiEC mice were treated with syrosingopine or vehicle starting on day 2 after uIRI and then every other day until day 14 post uIRI. […] MCT4 inhibition diminishes endothelial derived pro-inflammatory responses induced by hypoxia-reoxygenation and IL-1
Male mice 8-10 weeks of age underwent renal IRI surgery as previously described [Torosyan R, et al. Hypoxic preconditioning protects against ischemic kidney injury through the IDO1/kynurenine pathway. Cell Rep. 2021;36(7):109547]. Anesthesia was induced by IP injection of xylazine (10 mg/kg IP) and ketamine (90-120 mg/kg IP). After making a small midline abdominal incision, the left renal pedicle was occluded by applying a microaneurysm clamp for 25 minutes, while the right kidney was kept intact as an internal control in the unilateral IRI. For bilateral renal IRI, clamps were applied in both renal pedicles for 23 minutes. After the specified time, the clamps were removed, and reperfusion was visually confirmed. The incision site was closed with a 6-0 suture followed by the closure of the skin wound with Michel miniature clips. Throughout the surgical procedure, body temperature was monitored by a rectal probe and controlled with a heating pad at 37° C.
For in vivo MCT4 inhibition studies, mice were treated with syrosingopine (7.5 mg/kg) or vehicle starting on day 2 post IRI every other day until dissection on day 14 post IRI.
(§1) DNA and RNA were extracted and used for genomic or real-time PCR analysis, as previously described [Majmundar A J, et al. Hypoxia-Inducible Factors and the Response to Hypoxic Stress. Mol Cell. 2010; 40(2):294-309]. Real-time PCR was run in the QuantStudio 3 Real-Time PCR system (Applied Biosystems) using SYBR green or TaqMan PCR Master Mix. 18S rRNA was used for normalization.
For the histological examination, kidneys were fixed in 10% formalin buffer and paraffin blocks were prepared. To assess tubular damage and interstitial fibrosis, 5-μm transverse plane kidney sections were separately stained with hematoxylin and eosin (H&E) and Picro-Sirius red. […] Fibrosis was assessed by the percentage of Picro-Sirius red^+ve area determined with ImageJ software (http://rsbweb.nih.gov/ij). For tubular injury scoring and quantification of Picro-Sirius red^+ve area ^310 and ^35 random visual fields of corticomedullary region, respectively were analyzed per kidney section for each sample at a magnification of ×200.

[3] = system: human primary pulmonary artery endothelial cells (HPAECs); assay: EC adhesion molecule mRNA in HPAECs activated by hypoxia/reoxygenation and IL-1β; assay type: cell-based; details: 5 μM; hypoxia 0.5% O2 18 h, reoxygenation 8 h with IL-1β 1 ng/mL; vs vehicle
Description: (§2) To assess whether MCT4 inhibition acts cell-autonomously in ECs to suppress pro-inflammatory responses, we performed in vitro experiments in which human primary pulmonary artery endothelial cells (HPAECs) were activated by 18 hours exposure to hypoxia (0.5% O2), followed by reoxygenation for 8 hours in the presence of IL-1β treatment (1 ng/mL) (FIG. 11A). To inhibit MCT4, we first used syrosingopine at concentration of 5 μM, which diminished lactate secretion, as indicated by reduction in extracellular lactate levels (FIG. 20A). […] Consistent responses were observed when we used siRNA against MCT4. […] (FIGS. 11D and E).
as §1
Human primary pulmonary artery ECs (HPAECs) were obtained from ATCC and grown on gelatin-coated dishes in Endothelial Cell Basal Medium-2 (Lonza, Catalog #CC-3156) supplemented with EGM-2 SingleQuots Supplements (Lonza, Catalog #CC-4176). MCT4 siRNA was purchased from Qiagen (FlexiTube GeneSolution GS9123 for SLC16A3; Catalog #1027416). […]

[4] = system: THP-1 monocyte adhesion to HPAECs; assay: Endothelial-monocyte cell adhesion assay; assay type: cell-based, human; details: 5 μM; hypoxia-reoxygenation and IL-1β; 90 min incubation; vs vehicle
Description: as §2
Human primary pulmonary artery ECs (HPAECs) were obtained from ATCC and grown on gelatin-coated dishes in Endothelial Cell Basal Medium-2 (Lonza, Catalog #CC-3156) supplemented with EGM-2 SingleQuots Supplements (Lonza, Catalog #CC-4176). MCT4 siRNA was purchased from Qiagen (FlexiTube GeneSolution GS9123 for SLC16A3; Catalog #1027416). AllStars negative control siRNA (Qiagen) was used as control siRNA. HiPerFect transfection reagent (Qiagen, Catalog #301707) was used for siRNA transfection experiments. […]
Endothelial-monocyte cell adhesion assay. […] After 90 minutes, floating cells were removed, and fluorescent imaging was performed with quantification of the adhered monocytes using Fiji image J.

[5] = system: HPAECs; assay: Lactate measurements in HPAEC media; assay type: cell-based, human; details: 5 μM, 24 hours; vs vehicle (DMSO)
Description: Lactate measurements. […] Then, cell media were collected, and lactate levels were measured by a Lactate assay kit (Sigma, Catalog #MAK064) following the kit's instruction and protocol.

[6] = target: T1, MCT4 (Homo sapiens, UniProt O15427); details: dual MCT1/MCT4 inhibitor; cited from earlier work
T1 sequence (O15427 2-465 limits assumed): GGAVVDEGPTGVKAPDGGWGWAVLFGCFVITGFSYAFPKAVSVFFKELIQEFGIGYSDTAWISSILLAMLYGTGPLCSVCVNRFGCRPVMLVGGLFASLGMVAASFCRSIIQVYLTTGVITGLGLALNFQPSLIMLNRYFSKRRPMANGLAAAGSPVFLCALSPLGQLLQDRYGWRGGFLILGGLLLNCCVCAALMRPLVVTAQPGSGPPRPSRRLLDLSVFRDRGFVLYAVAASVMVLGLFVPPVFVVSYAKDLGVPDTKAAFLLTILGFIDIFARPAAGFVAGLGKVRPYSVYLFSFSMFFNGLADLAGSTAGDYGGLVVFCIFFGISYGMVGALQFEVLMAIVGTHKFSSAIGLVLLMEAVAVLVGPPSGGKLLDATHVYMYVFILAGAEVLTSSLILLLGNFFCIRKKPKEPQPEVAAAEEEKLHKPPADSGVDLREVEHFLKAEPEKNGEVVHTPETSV
T1 sequence (P35613 140-385 partner limits assumed): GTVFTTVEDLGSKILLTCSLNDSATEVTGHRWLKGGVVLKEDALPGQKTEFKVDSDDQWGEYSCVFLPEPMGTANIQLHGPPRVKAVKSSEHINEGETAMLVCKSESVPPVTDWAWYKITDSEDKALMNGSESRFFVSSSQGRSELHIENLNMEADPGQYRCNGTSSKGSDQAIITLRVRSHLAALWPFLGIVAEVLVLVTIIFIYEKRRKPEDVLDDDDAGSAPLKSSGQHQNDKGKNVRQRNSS

[7] = day 7 and day 14 post IRI, 7.5 mg/kg IP, vs vehicle, 7.5 mg/kg
[8] = 7.5 mg/kg every other day from day 2, vs vehicle

In the case of `CCOC(=O)Oc1c(OC)cc(C(=O)O[C@@H]2C[C@@H]3CN4CCc5c([nH]c6cc(OC)ccc56)[C@H]4C[C@@H]3[C@H](C(=O)OC)[C@H]2OC)cc1OC` [syrosingopine], the “Icam1 mRNA level in IR kidney (qPCR)” value [1, 7] is reported as “substantially lower levels; also recorded: significant reduction”, the “Loxl2 mRNA level in IR kidney (qPCR)” value [1, 7] is reported as “substantially lower levels; also recorded: significant reduction” and the “Tgfβ1 mRNA level in IR kidney (qPCR)” value [1, 7] is reported as “substantially lower levels; also recorded: significant reduction”. For the same molecule, the “Vcam1 mRNA level in IR kidney (qPCR)” value [1, 7] was “substantially lower levels; also recorded: significant reduction”, the “Picro-Sirius red stained area (fibrosis), image analysis” value ([1]; day 7 and day 14 post IRI, vs vehicle-treated controls) was “significantly less staining” and the tubular injury scoring ([1]; day 7 and day 14 post-IRI kidneys, 7.5 mg/kg IP, vs vehicle, 7.5 mg/kg) was “less injury; also recorded: reduced tubular damage”. For the same molecule, the “genes associated with pro-inflammatory pathways (bulk RNA-seq)” value ([1]; day 7 and day 14 post-IRI kidneys, vs vehicle) was “suppression”, the “reduction in fibrosis assessed by Picro Sirius red staining” value ([1]; day 7 post IRI, vs vehicle) was 25% and the “reduction in fibrosis assessed by Picro Sirius red staining” value ([1]; day 14 post IRI, vs vehicle) was 62%. For the same molecule, the “perfusion of IR kidney (visual)” value ([1]; day 14 post IRI, vs vehicle, 7.5 mg/kg) was “improved perfusion”, the “perfusion of IR kidney (visual)” value ([1]; day 14 post IRI, vs vehicle, listed as Syrosingopine, 7.5 mg/kg) was “visually better perfused” and the “genes of metabolic pathways, oxidative phosphorylation and fatty acid metabolism (bulk RNA-seq)” value ([1]; day 14 post-IRI kidneys, vs vehicle) was “significantly up-regulated; also recorded: upregulated”. The “reduction in collagen accumulation (Picro-Sirius red)” value [2, 8] was ~51%, the “reduction in tubular injury scoring” value [2, 8] was ~37% and the “Acta2 mRNA level” value ([2]; vs vehicle treated group) was “significantly downregulated”. The “Loxl2 mRNA level” value ([2]; vs vehicle treated group) was “significantly downregulated”, the “Tgfb1 mRNA level” value ([2]; vs vehicle treated group) was “significantly downregulated” and the “ICAM1 mRNA expression” value [3] was “significantly suppressed”. The “VCAM1 mRNA expression” value [3] was “significantly suppressed”, the “reduction of adhesion of monocytes (THP-1 cells) to HPAECs” value [4] was ~48% and the extracellular lactate levels [5] was “reduction”. The “higher potency towards MCT4 than MCT1” value [6] was 60 fold.

Reference: patent US20240245661A1, “MCT4-TARGETED THERAPEUTICS PREVENTING AKI TO CKD TRANSITION” (Northwestern University, priority 2023, published 2024)
